Test results taken from US10314870B2, “Tropism modified cancer terminator virus (Ad.5/3 CTV;AD.5/3-CTV-M7)” (priority 2012, dated 2019).

What was measured:
[1] = tested on: primary human GBM cells (GBM6, GBM12); assay: Cell death by trypan blue exclusion in primary human GBM cells; assay type: cell-based
Text: The pooled cell pellets were resuspended and mixed with trypan blue dye.

[2] = tested on: MIA PaCa-2 and BxPC-3 cells; assay: ROS formation, carboxy-H2DCFDA fluorescence; assay type: cell-based, human; conditions: 200 μM
Description: FIG. 14. Temporal kinetics of reactive oxygen species (ROS) formation induced by POH. MIA PaCa-2 and BxPC-3 cells were stained with carboxy-H2DCF-DA in PBS for 30 min followed by treatment of POH, and fluorescence was measured using a Flurometer with a green filter at the indicated time points. The readings noted were the difference between POH-treated group compared to untreated control.
To determine ROS production, cells were stained with 100 μl of 10 μM carboxy-H2DCFDA (Molecular Probes™, Invitrogen) in PBS for 30 min followed by treatment with Perillyl alcohol and fluorescence was measured with a Fluorometer using a green filter at the indicated time points.

[3] = cited from earlier work
[4] = tested on: MIA PaCa-2/luc xenografts; assay: MIA PaCa-2/luc xenografts on both flanks, Ad/MB by tail vein with UTMD on left tumor; assay type: in vivo, nude mice; conditions: POH 75 mg/kg i.p. daily; Ad.5-vec+POH compared to Ad.5/3-vec
Description: FIG. 11A-E. Ad.5/3-CTV-M7 in combination with POH completely eradicates primary and distant tumors in nude mice bearing human pancreatic tumor xenografts. Tumor xenografts generated from MIA-PaCa-2 cells stably expressing a luciferase gene (MIA PaCa-2-luc) were established in both the left and right flanks of nude mice. Tumors on the left flank were sonoporated for 10 min following tail-vein injection of the indicated complement treated Ad/MB complex, and treated as described in Materials and Methods section for 3 weeks starting from day 14 (1 injection/week). POH was administered i.p. daily for 4 weeks from day 1 of implantation of cells in nude mice. (A) Bioluminescence imaging (BLI) was performed using Xenogen In Vivo Imaging System (IVIS). BLI was performed every week and luminescence was quantified and tumor growth response curve of the left flank (B) and right flank or distant tumor (C) was plotted. (D) Secreted MDA-7/IL-24 in blood serum was measured using an MDA-7/IL-24 ELISA kit. (E) There was significant increase in ‘bystander’ effect of MDA-7/IL-24 in inhibiting in vivo tumor growth as measured by BLI. […]
Athymic nude mice were injected s.c. in both flanks with 5×10^6 MIA PaCa-2/luc (a stable clone of MIA PaCa-2 cells containing integrated pGL-3/luc). […] Images were analyzed by Living Image software. […]

PDAC cell lines = assay: MTT cell viability assay in pancreatic cancer cell lines; assay type: cell-based, human; conditions: 200 μM
Description: FIGS. 13A-D. Cancer-specific oncolytic effects of CTV-M7 in pancreatic cancer cells. Pancreatic cancer cells were treated with non-replicating Ad.5-mda-7 or Ad.5/3-mda-7 as well as conditional replication-competent Ads (CRCA) i.e., Ad.5-CTV-M7 and Ad.5/3-CTV-M7 and MTT assays were performed after 3 days. IC50 was calculated using GraphPad Prism 5.0. Points; mean±S.E. of three different experiments each performed in quadruplicate.
Pancreatic cancer cell lines were infected with Ad in incomplete medium for 3 h followed by treatment with Perillyl alcohol (POH) (200 μM) in complete medium (10% FBS) for 72 h, and cell proliferation assays were performed at O.D. 560 nm using cell proliferation assays after adding 100 μl of 3-(4,5-dimethylthiazol-2-yl)-2,5-diphenyltetrazolium bromide (Sigma Aldrich) (MTT) dye (1 mg/ml) (Sigma-Aldrich).

GBM6 cells [5] = assay: Autophagy, LC3-GFP vesicle formation; assay type: cell-based, human
Description: FIG. 19A-D. Induction of ER stress and autophagy plays a role in the interaction between MDA-7/IL-24 and HDACIs. Panel A. GBM6 cells were transfected in quadruplicate with a plasmid to express an LC3 (ATG8)-GFP fusion protein and in parallel transfected with scrambled siRNA (siSCR) or an siRNA to knock down Beclin/expression. Twenty-four h after transfection cells were treated with GST or GST-MDA-7 (20 nM) and/or SBHA (3 μM). Cells (a representative of 40 per well per time point) were examined 6 h, 12 h and 24 h after treatment using an Axiovert microscope (x40) for the formation of punctate vesicles containing LC3-GFP. Data are plotted as the number of LC3-GFP vesicles per cell (n=-2, +/− SEM) (*p<0.05 greater than GST+VEH; **p<0.05 greater than GST-MDA-7+VEH). Panel B. GBM6 cells were transfected with scrambled siRNA (siSCR) or an siRNA to knock down Beclinl expression. Twenty-four h after transfection cells were treated with GST or GST-MDA-7 (20 nM) and/or SBHA (3 μM). Cells were isolated 48 h later and viability determined by trypan blue exclusion (n=3, +/− SEM) (#p<0.05 less than corresponding value in siSCR cells). Panel C. GBM6 cells were transfected with an empty vector control plasmid or a plasmid to express dominant negative PERK. […] Cells were isolated 6 h after exposure and the phosphorylation of PERK and eIF2α determined (representative n=2). […]

GBM6 cells [6] = assay: Colony formation assay with Calcusyn analysis; assay type: cell-based, human; conditions: GBM cells
Description: GBM6 cells were plated as single cells (500-2,500 per 60-mm dish, in sextuplicate). […] Forty-eight h later cells were washed free of drugs and colonies were permitted to form for 20 days. (n=3, +/−SEM). Using the Calcusyn for Windows program we calculated the fraction affected (Fa) and the Combination Index (CI). A CI value of less than 1.00 indicates a synergy of interaction.

## CCOC(=O)C1=C(N)Oc2ccc(Br)cc2C1C(C#N)C(=O)OCC (centres unmarked) [HA14-1]
[1]; GBM6, Ad.5-mda-7 moi 10, obatoclax 0-200 nM or HA14-1 0-10 μM, 24 h
  effect on lethality of Ad.5-mda-7: enhanced the lethality of Ad.5-mda-7

## C=C(C)[C@@H]1CC=C(CO)CC1 [POH, perillyl alcohol]
[2]; 24 h
  ROS levels at 24 h: baseline levels
[2]; time course
  time of maximum ROS levels: 6 h
[2]; wild type and mutant K-ras pancreatic cell lines
  ROS induction: sufficient to induce significant amounts of ROS
[3]; POH 800-1600 mg/m^2/dose
  side effects: minimal side effects
[3]; plasma
  stability and detection in plasma: very unstable and cannot be detected in plasma
[4]
  effect of the POH dose with empty vector on tumor growth: non-toxic but therapeutically inactive
PDAC cell lines
  lethality and proliferation of PDAC cell lines: not lethal and does not affect proliferation

## C=C(C)[C@@H]1CC=C(C(=O)O)CC1 [Perillic acid]
[3]; plasma
  plasma concentration associated with minimal toxicities: 500 µM

## O=C(CCCCCCC(=O)NO)NO [SBHA, Suberohydroxamic acid]
[1]; GBM6, GBM12 infected with Ad.5-mda-7 moi 10, Na Valproate 0.3-1.0 mM, SBHA 0.3-5.0 μM, 48 h, dose-dependent
  effect on lethality of MDA-7/IL-24: enhanced the lethality of MDA-7/IL-24
GBM6 cells [5]; SBHA 3 μM with GST-MDA-7 20 nM
  effect on MDA-7/IL-24 stimulated autophagy levels: enhanced MDA-7/IL-24 stimulated autophagy levels
GBM6 cells [6]
  interaction with MDA-7/IL-24 protein in colony formation: synergized

## CCCC(CCC)C(=O)[O-].[Na+] [sodium valproate]
GBM6 cells [6]
  interaction with MDA-7/IL-24 protein in colony formation: synergized

B1: GST-MDA-7: bacterially synthesized GST-MDA-7 protein (protein)
chain: QEFHFGPCQVKGVVPQKLWEAFWAVKDTMQAQDNITSARLLQQEVLQNVSDAESCYLVHTLLEFYLKTVFKNYHNRTVEVRTLKSFSTLANNFVLIVSQLQPSQENEMFSIRDSAHRRFLLFRRAFKQLDVEAALTKALGEVDILLTWMQKFYKL
GBM6 cells [5]; GST-MDA-7 20 nM, 6 h, 12 h, 24 h, time-dependent
  autophagy (LC3-GFP vesicle) levels: increased autophagy
